Results as given in patent US5744451A, “N-substituted glutamic acid derivatives with interleukin-1 β converting enzyme inhibitory activity” (Warner-Lambert Company, priority 1996, dated 1998).
pKi: −log10 of the molar value. Residues, ends and D or L forms follow the SMILES beside them.

Assays:
[1] = target: T1, ICE (interleukin-1β converting enzyme) (Homo sapiens, UniProt P29466); experiment: ICE inhibition, fluorogenic Ac-Tyr-Val-Ala-Asp-AMC hydrolysis progress curves (Ki and kon); type: biochemical; settings: [I]=2 or 4 μM
T1 sequence (P29466 120-297 limits assumed): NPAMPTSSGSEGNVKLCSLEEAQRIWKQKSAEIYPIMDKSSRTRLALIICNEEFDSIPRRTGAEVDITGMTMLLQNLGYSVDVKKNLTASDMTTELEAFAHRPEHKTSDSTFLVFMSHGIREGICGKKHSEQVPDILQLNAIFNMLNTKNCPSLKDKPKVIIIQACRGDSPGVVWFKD
T1 sequence (P29466 317-404 limits assumed): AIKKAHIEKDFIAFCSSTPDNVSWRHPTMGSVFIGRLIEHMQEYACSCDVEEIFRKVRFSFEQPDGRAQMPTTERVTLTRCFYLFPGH
Experimental: The progress curves are fit to the equation F=F0 +Vf.t+(Vi -Vf) (1-exp(-kobs t))/kobs, where F0 is the initial fluorescence, Vi and Vf are initial and final reaction velocities, and kobs is the pseudo first-order rate of inhibition. Ki is calculated as Ki =SPF.[I]Vf /(Vi -Vf), where the substrate protection factor (SPF) is 1+[S]/Km =17.7. kon is calculated as SPF.kobs /[I].

[2] = test system: human peripheral blood mononuclear cells (PBMCs); experiment: Viability of PBMCs by MTT assay; type: cell-based; settings: compound at 100 μM, additional 4 hours with MTT
Source text: Further evidence that compounds of Formula I are valuable inhibitors of ICE is provided by their ability to inhibit IL-1β production in human peripheral blood mononuclear cells (PBMCs) as described herein. PBMCs are isolated from heparinized blood by centrifugation over a ficoll cushion, then washed three times with phosphate-buffered saline. PBMCs are suspended in a medium containing RPMI 1640 with glutamine, penicillin, streptomycin and 2% human AB serum, then plated at 10^6 cells per well in 96-well flat bottom plates. PBMCs are stimulated overnight with 10 ng/mL of lipopolysaccharide (LPS, E. Coli strain 0111:B4; Calbiochem) in the presence or absence of a compound of Formula I. Medium is harvested and the level of mature IL-1β was determined using an ELISA kit from R & D Systems. Cells were cultured for an additional 4 hours in the presence of 3-(4,5-dimethylthiazol-2-yl)-2,5-diphenyltetrazolium bromide (MTT) to determine viability.

CC(=O)N[C@@H](Cc1ccc(O)cc1)C(=O)N[C@H](C(=O)N[C@@H](C)C(=O)N[C@H](C=O)CCC(=O)O)C(C)C [Ac-Tyr-Val-Ala-Glu[CHO]] (Ac-YVAE-aldehyde)
pKi ([1]; ICE 0.24 nM, 250 μM substrate Ac-Tyr-Val-Ala-Asp-AMC, corrected by SPF 17.7, read-out: Ki against ICE): 8.74
kon ([1]; kon = SPF.kobs/[I], read-out: kon against ICE): 17200 M⁻¹ s⁻¹
cell viability after treatment (MTT assay) [2]: > 95%
